Experiments:
Caco-2 [1] = test: cell viability relative to DMSO; higher = less toxic; settings: 72 h
Calu-3 [2] = test: as above; settings: 72 h
HepG2 [3] = test: as above; settings: 72 h
U2OS [4] = test: as above; settings: 72 h
Vero E6 [5] = test: as above; settings: 72 h
Caco-2 [6] = test: relative viability EC50 (midpoint between 100% and the lowest measured viability); higher = less toxic; settings: 72 h
Calu-3 [7] = test: as above; settings: 72 h
HepG2 [8] = test: as above; settings: 72 h
U2OS [9] = test: as above; settings: 72 h
Vero E6 [10] = test: as above; settings: 72 h
Caco-2 [11] = test: drug sensitivity score (DSS) for viability; higher = more toxic; extreme values may be limits of the assay; settings: 72 h
Calu-3 [12] = test: as above; settings: 72 h
HepG2 [13] = test: as above; settings: 72 h
U2OS [14] = test: as above; settings: 72 h
Vero E6 [15] = test: as above; settings: 72 h
[16] = tested on: A549-ACE2 infected with SARS-CoV-2; test: cell count relative to DMSO; higher = less toxic; settings: 24 h
[17] = tested on: A549-ACE2 infected with SARS-CoV-2; test: SARS-CoV-2 infection rate relative to DMSO; higher = more infection; settings: 24 h
A549-ACE2 = test: drug-induced phospholipidosis relative to tamoxifen; higher = more phospholipidosis
[18] = tested on: A549-ACE2 infected with SARS-CoV-2; test: morphology score (similarity to uninfected cells); higher = more like uninfected cells; settings: 24 h

COc1ccc(C2CNC(=O)C2)cc1OC1CCCC1 (stereo not drawn) [rolipram]
cell viability [%]
Settings | Caco-2 [1] | Calu-3 [2] | HepG2 [3] | U2OS [4] | Vero E6 [5]
1 nM | 95.2 | 98.2 | 102 | 96.2 | 93.6
10 nM | 96.4 | 97.6 | 102 | 97 | 95.1
100 nM | 97.7 | 103 | 101 | 96.1 | 94.4
1000 nM | 98.8 | 98.4 | 106 | 99.1 | 96.8
10000 nM | 110 | 103 | 101 | 101 | 102

Settings | drug sensitivity score | relative viability EC50 [µM]
Caco-2 [6] | – | > 10
Caco-2 [11] | 0 | –
Calu-3 [7] | – | > 10
Calu-3 [12] | 0 | –
HepG2 [8] | – | > 10
HepG2 [13] | 0 | –
U2OS [9] | – | > 10
U2OS [14] | 0 | –
Vero E6 [10] | – | > 10
Vero E6 [15] | 0.0667 | –

COc1cccc(CCc2ccccc2OCC(CN(C)C)OC(=O)CCC(=O)O)c1 (stereo not drawn) [sarpogrelate]
cell viability [%]
Settings | Caco-2 [1] | Calu-3 [2] | HepG2 [3] | U2OS [4] | Vero E6 [5]
1 nM | 92.1 | 96.5 | 109 | 100 | 105
10 nM | 101 | 98.3 | 104 | 105 | 98.6
100 nM | 98.4 | 96.4 | 105 | 99.8 | 104
1000 nM | 105 | 102 | 92.5 | 103 | 100
10000 nM | 98.2 | 96.9 | 102 | 95.3 | 95.8

Settings | drug sensitivity score | relative viability EC50 [µM]
Caco-2 [6] | – | > 10
Caco-2 [11] | 0 | –
Calu-3 [7] | – | > 10
Calu-3 [12] | 0 | –
HepG2 [8] | – | > 10
HepG2 [13] | 0 | –
U2OS [9] | – | > 10
U2OS [14] | 0 | –
Vero E6 [10] | – | > 10
Vero E6 [15] | 0 | –

COc1cc(C[C@@H](CO[C@@H]2O[C@H](CO)[C@@H](O)[C@H](O)[C@H]2O)[C@H](CO[C@@H]2O[C@H](CO)[C@@H](O)[C@H](O)[C@H]2O)Cc2ccc(O)c(OC)c2)ccc1O [secoisolariciresinol-diglucoside]
cell viability [%]
Settings | Caco-2 [1] | Calu-3 [2] | HepG2 [3] | U2OS [4] | Vero E6 [5]
1 nM | 100 | 103 | 98.7 | 94 | 95.6
10 nM | 93.6 | 92.9 | 104 | 96.7 | 101
100 nM | 96.7 | 87.4 | 102 | 101 | 93.6
1000 nM | 99.4 | 103 | 111 | 101 | 97.8
10000 nM | 108 | 102 | 110 | 97.9 | 110

Settings | drug sensitivity score | relative viability EC50 [µM]
Caco-2 [6] | – | > 10
Caco-2 [11] | 0 | –
Calu-3 [7] | – | > 10
Calu-3 [12] | 0 | –
HepG2 [8] | – | > 10
HepG2 [13] | 0 | –
U2OS [9] | – | > 10
U2OS [14] | 0 | –
Vero E6 [10] | – | > 10
Vero E6 [15] | 0 | –

CC(SC(=O)c1cccs1)C(=O)NCC(=O)O (stereo not drawn) [stepronin]
cell viability [%]
Settings | Caco-2 [1] | Calu-3 [2] | HepG2 [3] | U2OS [4] | Vero E6 [5]
1 nM | 112 | 91.9 | 106 | 96.6 | 109
10 nM | 84.4 | 106 | 102 | 104 | 91.9
100 nM | 96.1 | 97.6 | 105 | 93.5 | 108
1000 nM | 103 | 110 | 88.6 | 99 | 101
10000 nM | 103 | 97.5 | 97 | 97.1 | 98.8

Settings | drug sensitivity score | relative viability EC50 [µM]
Caco-2 [6] | – | > 10
Caco-2 [11] | 0 | –
Calu-3 [7] | – | > 10
Calu-3 [12] | 0 | –
HepG2 [8] | – | > 10
HepG2 [13] | 0.3 | –
U2OS [9] | – | > 10
U2OS [14] | 0 | –
Vero E6 [10] | – | > 10
Vero E6 [15] | 0 | –

C[S+]([O-])CCCCN=C=S (stereo not drawn) [sulforaphane]
Settings | SARS-CoV-2 infection rate, [17] [%] | cell count, [16] [%] | cell viability, Caco-2 [1] [%] | cell viability, Calu-3 [2] [%] | cell viability, HepG2 [3] [%] | cell viability, U2OS [4] [%] | cell viability, Vero E6 [5] [%] | morphology score, [18]
1 nM | – | – | 92.1 | 91 | 90.5 | 100 | 103 | –
10 nM | – | – | 107 | 91 | 89.7 | 104 | 108 | –
100 nM | – | – | 104 | 96 | 90.6 | 97.7 | 104 | –
0.3 µM | 95 | 104 | – | – | – | – | – | 0.21
1000 nM | – | – | 91.3 | 108 | 79.8 | 97.9 | 94.6 | –
3 µM | 95 | 99 | – | – | – | – | – | -0.05
10 µM | 79 | 85 | – | – | – | – | – | 0.33
10000 nM | – | – | 70.9 | 97.9 | 72.3 | 77.4 | 90.2 | –
30 µM | 18 | 109 | – | – | – | – | – | 0.82

drug-induced phospholipidosis [%], A549-ACE2
Settings | 0.3 µM | 0.833333 µM | 3.33333 µM | 6.66667 µM | 10 µM | 30 µM
24 h | 1.81 | -7.24 | -2.29 | 1.54 | 3.49 | 22.7
48 h | 1.78 | -7.01 | -5.48 | -4.04 | -0.65 | 15.9
72 h | -0.306 | -6.99 | -5.48 | -5.9 | -2.75 | 7.99

Settings | drug sensitivity score | relative viability EC50 [µM]
Caco-2 [11] | 2.5 | –
Calu-3 [7] | – | > 10
Calu-3 [12] | 0 | –
HepG2 [13] | 4.1 | –
U2OS [9] | – | > 10
U2OS [14] | 1.1 | –
Vero E6 [10] | – | > 10
Vero E6 [15] | 0 | –

COc1cc(C(=S)N2CCOCC2)cc(OC)c1OC [sulmetozine]
cell viability [%]
Settings | Caco-2 [1] | Calu-3 [2] | HepG2 [3] | U2OS [4] | Vero E6 [5]
1 nM | 90.8 | 96.5 | 95 | 97.2 | 103
10 nM | 98 | 99.4 | 102 | 103 | 94.7
100 nM | 90.6 | 102 | 98.6 | 94.6 | 105
1000 nM | 91.6 | 99.9 | 111 | 96.3 | 97.7
10000 nM | 103 | 105 | 108 | 102 | 113

Settings | drug sensitivity score | relative viability EC50 [µM]
Caco-2 [6] | – | > 10
Caco-2 [11] | 0 | –
Calu-3 [7] | – | > 10
Calu-3 [12] | 0 | –
HepG2 [8] | – | > 10
HepG2 [13] | 0 | –
U2OS [9] | – | > 10
U2OS [14] | 0 | –
Vero E6 [10] | – | > 10
Vero E6 [15] | 0 | –
